Experimental data published in patent publication US20260199284A1, “SPECIFIC VASH COMPOUNDS (SVC) INHIBITORS FOR HEART DISEASES” (MT ACT, priority 2023, published 2026).
Entries after “also recorded” stand apart in the source; their conditions may differ.

Tests used:
[1] = molecular target: T1, Human rhinovirus (HRV) type 14 3C protease (Human rhinovirus 14, UniProt P03303); experiment: HRV type 14 3C protease assay; assay type: biochemical; settings: increasing dose
T1 construct: Assay using active recombinant Human rhinovirus (HRV) type 14 3C protease
T1 sequence (P03303 1538-1719): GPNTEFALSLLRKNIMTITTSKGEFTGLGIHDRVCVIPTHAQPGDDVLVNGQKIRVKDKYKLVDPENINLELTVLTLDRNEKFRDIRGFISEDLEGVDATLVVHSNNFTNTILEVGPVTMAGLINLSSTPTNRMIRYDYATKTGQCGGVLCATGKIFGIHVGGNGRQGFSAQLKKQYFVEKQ
Excerpt: FIG. 7: Assay using active recombinant Human rhinovirus (HRV) type 14 3C protease Cysteine in absence (neg) or presence (increasing dose) of SVC_01. HRV is a protease with preference for non-aromatic residues at P1′. The optimum recognition site for Human rhinovirus (HRV) type 14 3C protease is LEVLFQ/GP, with a glycine at the P1′ position.
Below, the criteria for selection are detailed: • Protease with documented carboxypeptidase activity towards alpha tubulin. Carboxypeptidase A hydrolyzes peptide bonds of C-terminal residues with aromatic or aliphatic side-chains (FIG. 6). • Cysteine protease with preference for non-aromatic residues at P1′. The optimum recognition site for Human rhinovirus (HRV) type 14 3C protease is LEVLFQ/GP, with a glycine at the P1′ position (FIG. 7). • Cysteine protease with preference for aromatic residues at P1′ site. Alike VASH, cathepsin B prefers an aromatic residue at the P1′ position. This is considered to be our best control for specificity (FIG. 8)

[2] = test system: mitochondrial activity; experiment: Seahorse Cell Mito Stress Test; assay type: cell-based; settings: 20 μM
Description: FIG. 10: Mitochondrial activity assays using the Agilent Seahorse Cell Mito Stress Test kit in absence or presence of SVC_01 [20 μM]. This assay is the widely recognized, well-accepted standard assay for assessing energetic mitochondrial function. Multiple parameters are obtained in this one assay including, basal respiration, ATP-linked respiration, maximal and reserve capacities, and non-mitochondrial respiration. The assay provides insights into the mechanism of mitochondrial dysfunction and allow users to investigate functional differences among cell types, drug candidates, and genetic or biochemical interventions.
Next, we performed safety pharmacology experiments and head-to-head compared the cellular toxicity of SVCs on human cells. For our comparison we used microtubule binding agents including Parthenolide that previously was coined as an inhibitor of detyrosination (Fonrose et al., 2007). This compound was latter shown to disrupt microtubules by non-specific binding to tubulin in the molecular structure (Hotta T. et al., 2021). […] Mitochondrial health was assayed using the Seahorse equipment XF. […] No mitochondrial defects were measured at 20 micromolar concentration of our VASH inhibitor (FIG. 10). […]

[3] = test system: primary cardiomyocytes isolated from healthy Sprague Dawley rats; experiment: Unloaded shortening contractility of healthy isolated cardiomyocytes; assay type: cell-based; settings: healthy rat cardiomyocytes
Description: FIG. 13: Dose-dependent modest improvement in contraction and relaxation kinetics during unloaded shortening upon VASH inhibition in primary cardiomyocytes isolated from healthy Sprague Dawley rats. A) Resting sarcomere length, B) fractional shortening, C) contraction time and D) relaxation time in healthy isolated rat cardiomyocytes. n=50-60 myocytes per group from N=3 Sprague Dawley rats. One-way ANOVA.
Contractility was measured in a custom-fabricated cell chamber (IonOptix) mounted on an LSM Zeiss 880 inverted confocal microscope using either a 40 or 63× oil 1.4 numerical aperture objective and transmitted light camera (IonOptix MyoCam-S). Experiments were conducted at room temperature and field stimulation was provided at 1.0 Hz with a cell stimulator (MyoPacer, IonOptix). After 10-30 seconds of pacing to achieve steady state, five traces were recorded and analyzed. Sarcomere length was measured optically by Fourier transform analysis (IonWizard, IonOptix).

[4] = test system: human cells
Description: FIG. 9: Cell viability assay comparing microtubule binding drugs (Parthenolide, Taxol) to SVC_01 exposure on human cells. The MTT assay is used to measure cellular metabolic activity as an indicator of cell viability, proliferation and cytotoxicity. This colorimetric assay is based on the reduction of a yellow tetrazolium salt (3-(4,5-dimethylthiazol-2-yl)-2,5-diphenyltetrazolium bromide or MTT) to purple formazan crystals by metabolically active cells.

[5] = test system: cardiomyocytes isolated from failing human hearts; experiment: Human myocyte contractility; assay type: cell-based
Description: Once excised, hearts were transported from the operating room to the laboratory in cold cardioplegia. The myocyte isolation was performed as previously described. An apical wedge was dissected from left ventricular free wall and a catheter was placed into the left anterior descending artery. The cannula was flushed with cold saline to evaluate perfusion of the wedge and tie any major vessels. The myocardium was then perfused with warm non-recirculating Krebs-Henseleit buffer (KHB) solution (12.5 mM glucose, 5.4 mM KCl, 1 mM lactic acid, 1.2 mM MgSO4, 130 mM NaCl, 1.2 mM NaH2PO4, 25 mM NaHCO3, 2 mM Na pyruvate, 20 mM BDM and 10 mM taurine, pH 7.4) for 10 minutes. Then, the myocardium was perfused with recirculated KHB and type II collagenase (294 units/mL) (Worthington Biochemical Corp., Lakewood, NJ, USA) for 5 minutes before calcium was slowly re-introduced to reach a final concentration of 1 mM. The collagenase and calcium supplemented KHB were recirculated for 25-30 minutes depending on the how the myocardium digested. The tissue was then removed from the cannula, rinsed in KHB with 1% bovine serum albumin (BSA) to stop the digestion, and then minced. The cell suspension was then filtered using 280-uM nylon mesh, centrifuged (25×g for 2 min), and resuspended in normal Tyrode's solution. Cells were treated with VASH inhibitor (VASHi) (1 mM) or vehicle (DMSO) before being placed in an incubator for 4 hours.
Contractility was assessed as previously described. After the 4-hour incubation with either VASHi or vehicle was complete, cardiomyocytes were transferred to 35 mm glass-bottom dishes. Contractility data was collected at 37 C. Cardiomyocytes were paced at 0.5 Hz using a myopacer (IonOptix MYP100) with custom fabricated carbon electrodes lowered into the glass bottom dish. Cells were paced for 10-15 seconds to reach steady state contractions and then data was recorded using high-speed video imaging with a Nikon PU-2000 inverted microscope with a 40× objective (IonWizard, IonOptix). A minimum of 5 contractions were recorded for Each myocyte and analyzed offline.
Cardiomyocytes were isolated from failing (N=4) and non-failing (N=3) human hearts, then treated with vehicle or VASHi (SVC-02) to evaluate bioactivity of the small molecule compound in primary human cardiomyocytes. Patient demographics are detailed in a table (FIG. 26). Compiled traces from all non-failing and failing patients are shown (FIG. 27).

[6] = test system: Swiss mice; experiment: Organ histology (Hematoxylin and Eosin) after systemic treatment; assay type: in vivo, mouse
Excerpt: To further ascertain the safety profile of the compounds in an animal model, we administered SVC-02 to Swiss mice and analysed by immunohistological description different organ structures including kidney, heart and lung.

SMILES	inhibition of HRV type 14 3C protease [1]	mitochondrial activity [2]	contraction and relaxation times [3]	cell viability / proliferation (MTT) [4]	contraction velocity [5]	fractional shortening [5]	resting sarcomere length [5]	time to 50% relaxation / relaxation ([5]; 4 hours incubation)	organ structure (kidney, heart and lung) histology [6]
O=C(O)CCC[C@H](NC(=O)[C@H]1O[C@@H]1C(=O)C[C@@H](Cc1ccc(OCc2ccccc2)cc1)C(=O)O)C(=O)NCCc1ccccc1 [SVC_01]	does not reduce activity	does not alter mitochondrial activity	dose-dependent and statistically significant improvements	does not impact cell proliferation					
CCOC(=O)[C@H](Cc1ccc(OCC)cc1)NC(=O)[C@H]1O[C@@H]1C(=O)N[C@@H](Cc1ccc(OCC)cc1)C(=O)OCC [SVC_02]					did not significantly change	did not significantly change	did not significantly change	improved; also recorded: shortened the time to 50% relaxation	normal appearance of different organs; also recorded: did not alter organ structure
